In patent US8507548B2, “Method for treating addiction using quercetin-containing compositions” (Quercegen Pharmaceuticals LLC, priority 2008, dated 2013):

Tests used:
[1] = test system: neuron cells; assay: re-uptake of neurotransmitters by neuron cells; format: cell-based
[2] = test system: withdrawal symptoms accompanied with addiction; settings: e.g., alcohol abstinence-induced anxiety and convulsion; Joshi et al., J. Med. Food 2005; cited from earlier work

For O=c1c(O)c(-c2ccc(O)c(O)c2)oc2cc(O)cc(O)c12 [Quercetin], the “re-uptake of neurotransmitters by neuron cells” value [1] is listed as “block re-uptake of neurotransmitters by neuron cells” and the “effect on withdrawal symptoms accompanied with addiction” value [2] is listed as “alleviate withdrawal symptoms”.
